In ChEMBL document CHEMBL2429821, “A Casein kinase 1/Checkpoint kinase 1 pyrazolo-pyridine protein kinase inhibitor as novel activator of the p53 pathway” (Bioorg Med Chem Lett, 2013):

Tests used:
[1] = biological target: Protein kinase C alpha type (Homo sapiens) (UniProt P17252); assay: Inhibition of human PKCalpha assessed as residual activity at 1 uM relative to control
[2] = biological target: Insulin receptor (Homo sapiens) (UniProt P06213); assay: Inhibition of human IR assessed as residual activity at 1 uM relative to control
[3] = biological target: Casein kinase II (Homo sapiens) (UniProt P67870+P68400+P19784); assay: Inhibition of human CK2 assessed as residual activity at 1 uM relative to control; assay type: protein-complex assay
[4] = biological target: Tyrosine-protein kinase Yes (Homo sapiens) (UniProt P07947); assay: Inhibition of human YES1 assessed as residual activity at 10 uM relative to control
[5] = biological target: Rho-associated protein kinase 2 (Rattus norvegicus) (UniProt Q62868); assay: Inhibition of rat ROCK2 assessed as residual activity at 10 uM relative to control
[6] = biological target: Serine/threonine-protein kinase PAK 4 (Homo sapiens) (UniProt O96013); assay: Inhibition of human PAK4 assessed as residual activity at 10 uM relative to control
[7] = biological target: Ribosomal protein S6 kinase alpha-5 (Homo sapiens) (UniProt O75582); assay: Inhibition of human MSK1 assessed as residual activity at 10 uM relative to control
[8] = biological target: Ephrin type-A receptor 2 (Homo sapiens) (UniProt P29317); assay: Inhibition of human EPHA2 assessed as residual activity at 10 uM relative to control
[9] = biological target: Myosin light chain kinase, smooth muscle (Homo sapiens) (UniProt Q15746); assay: Inhibition of human smMLCK assessed as residual activity at 1 uM relative to control
[10] = biological target: Serine/threonine-protein kinase N2 (Homo sapiens) (UniProt Q16513); assay: Inhibition of human PRK2 assessed as residual activity at 1 uM relative to control
[11] = biological target: T1, Serine/threonine-protein kinase Nek2 (Homo sapiens) (UniProt P51955); assay: Inhibition of human NEK2alpha assessed as residual activity at 1 uM relative to control
T1 sequence (whole entry): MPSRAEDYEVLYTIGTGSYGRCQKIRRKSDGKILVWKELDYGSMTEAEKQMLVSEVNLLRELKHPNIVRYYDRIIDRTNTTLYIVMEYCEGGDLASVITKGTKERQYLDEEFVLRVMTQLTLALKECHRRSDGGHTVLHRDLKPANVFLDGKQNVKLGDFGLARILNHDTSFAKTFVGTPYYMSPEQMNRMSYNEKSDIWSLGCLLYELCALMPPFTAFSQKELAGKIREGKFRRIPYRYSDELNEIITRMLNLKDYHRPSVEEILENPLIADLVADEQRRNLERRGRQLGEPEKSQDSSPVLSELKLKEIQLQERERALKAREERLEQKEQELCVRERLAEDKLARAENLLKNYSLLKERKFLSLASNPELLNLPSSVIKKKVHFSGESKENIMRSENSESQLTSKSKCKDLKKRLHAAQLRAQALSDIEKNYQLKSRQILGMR

[12] = biological target: MAP/microtubule affinity-regulating kinase 3 (Homo sapiens) (UniProt P27448); assay: Inhibition of human MARK3 assessed as residual activity at 1 uM relative to control
[13] = biological target: Insulin-like growth factor 1 receptor (Homo sapiens) (UniProt P08069); assay: Inhibition of human IGF-1R assessed as residual activity at 1 uM relative to control
[14] = biological target: T2, Serine/threonine-protein kinase Chk1 (Homo sapiens) (UniProt O14757); assay: Inhibition of human CHK1 assessed as residual activity at 1 uM relative to control
T2 sequence (whole entry): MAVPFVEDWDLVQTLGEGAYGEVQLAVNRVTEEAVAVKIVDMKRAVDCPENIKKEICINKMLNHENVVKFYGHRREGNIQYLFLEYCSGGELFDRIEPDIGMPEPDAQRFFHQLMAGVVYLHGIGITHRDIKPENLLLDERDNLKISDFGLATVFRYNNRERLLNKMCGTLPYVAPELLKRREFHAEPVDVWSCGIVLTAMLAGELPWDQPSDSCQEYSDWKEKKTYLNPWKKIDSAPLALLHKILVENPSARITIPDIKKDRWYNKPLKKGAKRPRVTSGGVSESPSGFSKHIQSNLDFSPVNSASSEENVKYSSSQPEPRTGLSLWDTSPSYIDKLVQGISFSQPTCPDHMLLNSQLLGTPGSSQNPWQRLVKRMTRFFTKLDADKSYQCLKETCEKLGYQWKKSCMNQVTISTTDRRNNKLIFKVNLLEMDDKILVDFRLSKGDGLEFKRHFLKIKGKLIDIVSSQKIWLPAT

[15] = biological target: T3, Serine/threonine-protein kinase Sgk1 (Homo sapiens) (UniProt O00141); assay: Inhibition of human SGK1 assessed as residual activity at 10 uM relative to control
T3 sequence (whole entry): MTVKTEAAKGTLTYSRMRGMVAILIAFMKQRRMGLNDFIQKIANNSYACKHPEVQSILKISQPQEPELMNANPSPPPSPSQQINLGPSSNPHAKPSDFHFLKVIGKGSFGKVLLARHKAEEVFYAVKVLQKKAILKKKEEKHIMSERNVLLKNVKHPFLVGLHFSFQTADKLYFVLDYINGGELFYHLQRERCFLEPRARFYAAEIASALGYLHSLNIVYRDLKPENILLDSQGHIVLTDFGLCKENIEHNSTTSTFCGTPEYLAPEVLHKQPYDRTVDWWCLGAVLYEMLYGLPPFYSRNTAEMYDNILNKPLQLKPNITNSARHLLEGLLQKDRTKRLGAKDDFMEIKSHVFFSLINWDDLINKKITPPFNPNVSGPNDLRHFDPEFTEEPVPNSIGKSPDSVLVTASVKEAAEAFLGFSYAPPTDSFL

[16] = species: Oryctolagus cuniculus; assay: Inhibition of rabbit MKK1 assessed as residual activity at 10 uM relative to control
[17] = biological target: 3-phosphoinositide-dependent protein kinase 1 (Homo sapiens) (UniProt O15530); assay: Inhibition of human PDK1 assessed as residual activity at 1 uM relative to control

Insulin receptor (Homo sapiens), sequence (P06213 28-758 limits assumed): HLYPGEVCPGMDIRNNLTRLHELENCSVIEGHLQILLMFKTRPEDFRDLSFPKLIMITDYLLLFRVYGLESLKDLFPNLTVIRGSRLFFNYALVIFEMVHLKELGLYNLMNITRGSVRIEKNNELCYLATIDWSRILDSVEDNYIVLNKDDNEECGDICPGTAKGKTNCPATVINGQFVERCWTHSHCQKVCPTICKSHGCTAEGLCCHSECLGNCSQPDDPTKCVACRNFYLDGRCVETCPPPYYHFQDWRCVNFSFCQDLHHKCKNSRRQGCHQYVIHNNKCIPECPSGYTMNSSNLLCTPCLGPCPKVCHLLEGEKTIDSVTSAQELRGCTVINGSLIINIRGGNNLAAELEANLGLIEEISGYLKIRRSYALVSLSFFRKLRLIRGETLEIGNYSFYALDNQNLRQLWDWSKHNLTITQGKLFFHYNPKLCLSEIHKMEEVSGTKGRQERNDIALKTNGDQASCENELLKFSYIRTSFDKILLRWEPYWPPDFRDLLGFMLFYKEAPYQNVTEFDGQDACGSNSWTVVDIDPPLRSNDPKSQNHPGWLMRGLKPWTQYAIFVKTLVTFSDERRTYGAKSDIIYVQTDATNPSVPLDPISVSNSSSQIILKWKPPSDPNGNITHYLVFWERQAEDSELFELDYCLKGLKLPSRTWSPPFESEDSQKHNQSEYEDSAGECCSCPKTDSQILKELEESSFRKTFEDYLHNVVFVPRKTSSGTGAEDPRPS
Insulin receptor (Homo sapiens), sequence (P06213 763-1382 limits assumed): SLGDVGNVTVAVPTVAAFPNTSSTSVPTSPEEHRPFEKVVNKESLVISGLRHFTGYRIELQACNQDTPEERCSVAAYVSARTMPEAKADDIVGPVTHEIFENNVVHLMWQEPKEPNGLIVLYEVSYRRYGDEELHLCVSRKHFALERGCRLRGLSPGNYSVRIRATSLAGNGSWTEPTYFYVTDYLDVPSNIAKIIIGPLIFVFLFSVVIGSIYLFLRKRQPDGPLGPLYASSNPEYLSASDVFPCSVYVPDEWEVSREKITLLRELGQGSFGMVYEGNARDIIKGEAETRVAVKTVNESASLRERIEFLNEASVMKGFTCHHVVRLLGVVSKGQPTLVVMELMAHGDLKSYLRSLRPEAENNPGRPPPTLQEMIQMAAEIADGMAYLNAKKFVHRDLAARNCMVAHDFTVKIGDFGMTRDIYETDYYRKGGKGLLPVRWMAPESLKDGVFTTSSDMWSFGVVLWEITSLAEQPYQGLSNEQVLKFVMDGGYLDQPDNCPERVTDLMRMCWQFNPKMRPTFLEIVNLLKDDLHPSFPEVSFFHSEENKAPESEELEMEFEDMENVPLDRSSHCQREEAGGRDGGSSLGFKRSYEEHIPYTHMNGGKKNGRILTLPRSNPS
Rho-associated protein kinase 2 (Rattus norvegicus), sequence (Q62868 whole entry, looked up): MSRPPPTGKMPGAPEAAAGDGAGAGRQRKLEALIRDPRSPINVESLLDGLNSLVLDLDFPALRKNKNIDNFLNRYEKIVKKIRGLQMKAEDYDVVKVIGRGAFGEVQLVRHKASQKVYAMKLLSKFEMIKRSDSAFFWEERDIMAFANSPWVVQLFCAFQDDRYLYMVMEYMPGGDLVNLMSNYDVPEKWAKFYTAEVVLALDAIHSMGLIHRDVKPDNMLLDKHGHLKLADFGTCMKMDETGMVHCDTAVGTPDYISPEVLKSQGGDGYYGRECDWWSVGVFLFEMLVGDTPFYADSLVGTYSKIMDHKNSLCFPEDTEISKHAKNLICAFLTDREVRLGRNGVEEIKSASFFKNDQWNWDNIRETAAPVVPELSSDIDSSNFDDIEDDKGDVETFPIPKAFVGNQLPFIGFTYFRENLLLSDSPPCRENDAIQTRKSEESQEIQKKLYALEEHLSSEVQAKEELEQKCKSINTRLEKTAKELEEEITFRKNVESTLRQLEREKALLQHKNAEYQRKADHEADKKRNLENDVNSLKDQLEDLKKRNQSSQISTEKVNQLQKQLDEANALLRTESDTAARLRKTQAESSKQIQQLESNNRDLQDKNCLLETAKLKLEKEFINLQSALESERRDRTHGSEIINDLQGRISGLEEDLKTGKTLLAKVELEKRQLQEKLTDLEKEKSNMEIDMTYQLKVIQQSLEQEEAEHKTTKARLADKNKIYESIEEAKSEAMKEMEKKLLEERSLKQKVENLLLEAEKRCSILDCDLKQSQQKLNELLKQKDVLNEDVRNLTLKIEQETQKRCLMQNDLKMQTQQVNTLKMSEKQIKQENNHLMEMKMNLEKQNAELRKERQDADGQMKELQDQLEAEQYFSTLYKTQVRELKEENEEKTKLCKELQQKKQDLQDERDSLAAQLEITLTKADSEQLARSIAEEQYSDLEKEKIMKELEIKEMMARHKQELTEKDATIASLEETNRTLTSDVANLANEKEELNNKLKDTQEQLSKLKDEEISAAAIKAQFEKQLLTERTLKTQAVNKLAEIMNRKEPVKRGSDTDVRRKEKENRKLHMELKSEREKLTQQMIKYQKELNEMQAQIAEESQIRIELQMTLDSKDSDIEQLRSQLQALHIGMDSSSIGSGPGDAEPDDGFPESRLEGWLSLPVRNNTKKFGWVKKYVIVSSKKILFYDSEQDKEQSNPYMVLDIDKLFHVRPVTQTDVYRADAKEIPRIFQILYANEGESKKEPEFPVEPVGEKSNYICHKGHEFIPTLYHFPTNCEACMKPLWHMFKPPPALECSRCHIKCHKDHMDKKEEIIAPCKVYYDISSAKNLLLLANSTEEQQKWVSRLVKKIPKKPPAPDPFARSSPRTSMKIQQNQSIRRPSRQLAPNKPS
Serine/threonine-protein kinase N2 (Homo sapiens), sequence (Q16513 whole entry, looked up): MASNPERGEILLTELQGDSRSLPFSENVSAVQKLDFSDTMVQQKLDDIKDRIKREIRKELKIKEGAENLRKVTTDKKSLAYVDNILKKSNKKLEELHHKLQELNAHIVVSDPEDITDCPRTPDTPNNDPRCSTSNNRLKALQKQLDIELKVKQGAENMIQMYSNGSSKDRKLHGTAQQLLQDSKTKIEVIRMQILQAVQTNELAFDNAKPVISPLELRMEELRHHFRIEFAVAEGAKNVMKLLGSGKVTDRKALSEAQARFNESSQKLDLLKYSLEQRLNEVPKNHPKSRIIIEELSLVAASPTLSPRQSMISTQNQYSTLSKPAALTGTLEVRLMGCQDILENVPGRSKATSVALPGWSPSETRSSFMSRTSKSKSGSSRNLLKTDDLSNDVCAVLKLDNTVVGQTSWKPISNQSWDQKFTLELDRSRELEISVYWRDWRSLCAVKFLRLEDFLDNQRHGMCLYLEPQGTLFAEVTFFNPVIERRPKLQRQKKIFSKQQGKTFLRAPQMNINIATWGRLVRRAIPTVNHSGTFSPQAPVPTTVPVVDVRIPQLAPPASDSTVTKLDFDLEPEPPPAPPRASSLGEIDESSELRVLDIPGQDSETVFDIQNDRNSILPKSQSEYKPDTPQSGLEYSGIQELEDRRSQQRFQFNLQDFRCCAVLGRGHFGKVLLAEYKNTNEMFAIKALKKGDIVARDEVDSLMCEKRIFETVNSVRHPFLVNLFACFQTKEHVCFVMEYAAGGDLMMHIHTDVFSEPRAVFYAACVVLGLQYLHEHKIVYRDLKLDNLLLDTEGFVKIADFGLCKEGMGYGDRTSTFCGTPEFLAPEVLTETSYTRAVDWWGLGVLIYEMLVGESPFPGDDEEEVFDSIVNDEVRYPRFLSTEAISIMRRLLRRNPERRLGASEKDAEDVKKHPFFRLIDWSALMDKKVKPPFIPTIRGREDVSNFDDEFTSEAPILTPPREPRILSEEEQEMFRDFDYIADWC
Tyrosine-protein kinase Yes (Homo sapiens), sequence (P07947 2-543 limits assumed): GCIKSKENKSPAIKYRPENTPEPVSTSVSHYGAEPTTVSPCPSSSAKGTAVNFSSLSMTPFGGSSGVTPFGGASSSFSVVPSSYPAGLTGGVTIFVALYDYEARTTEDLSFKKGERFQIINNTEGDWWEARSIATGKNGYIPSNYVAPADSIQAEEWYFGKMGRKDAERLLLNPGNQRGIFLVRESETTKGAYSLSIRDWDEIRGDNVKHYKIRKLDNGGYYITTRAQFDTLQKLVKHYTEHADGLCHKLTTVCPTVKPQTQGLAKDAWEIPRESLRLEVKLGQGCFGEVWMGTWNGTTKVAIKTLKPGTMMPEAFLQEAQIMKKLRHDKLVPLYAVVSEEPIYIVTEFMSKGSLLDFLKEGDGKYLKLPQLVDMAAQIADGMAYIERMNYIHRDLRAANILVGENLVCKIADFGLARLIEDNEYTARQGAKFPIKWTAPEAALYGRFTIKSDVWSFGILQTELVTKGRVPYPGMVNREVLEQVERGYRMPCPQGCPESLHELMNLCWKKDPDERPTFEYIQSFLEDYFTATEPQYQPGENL
MAP/microtubule affinity-regulating kinase 3 (Homo sapiens), sequence (P27448 whole entry, looked up): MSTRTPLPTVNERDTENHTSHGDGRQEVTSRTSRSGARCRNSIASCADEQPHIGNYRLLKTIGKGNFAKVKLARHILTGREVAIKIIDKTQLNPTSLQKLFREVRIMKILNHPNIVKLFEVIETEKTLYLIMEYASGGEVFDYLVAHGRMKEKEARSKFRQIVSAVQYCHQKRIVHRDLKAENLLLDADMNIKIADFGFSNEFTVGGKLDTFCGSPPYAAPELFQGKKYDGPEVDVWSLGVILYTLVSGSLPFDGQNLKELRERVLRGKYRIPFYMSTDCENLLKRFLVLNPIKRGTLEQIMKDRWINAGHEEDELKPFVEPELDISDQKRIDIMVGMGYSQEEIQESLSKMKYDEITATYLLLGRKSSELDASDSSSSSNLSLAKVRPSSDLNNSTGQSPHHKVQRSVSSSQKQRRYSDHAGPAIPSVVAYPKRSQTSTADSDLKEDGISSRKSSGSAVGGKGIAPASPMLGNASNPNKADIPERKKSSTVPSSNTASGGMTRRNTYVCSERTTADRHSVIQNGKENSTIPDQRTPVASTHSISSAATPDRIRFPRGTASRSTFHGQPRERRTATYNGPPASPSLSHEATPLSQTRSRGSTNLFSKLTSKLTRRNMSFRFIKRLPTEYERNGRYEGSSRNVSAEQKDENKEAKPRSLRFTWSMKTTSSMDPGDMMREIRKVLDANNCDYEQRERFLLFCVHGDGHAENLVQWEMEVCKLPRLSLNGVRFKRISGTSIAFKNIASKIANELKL

CCCC(=O)Nc1n[nH]c2ncc(-c3cccnc3)cc12
Activity [1]: 79%
Activity [2]: 101%
Activity [3]: 82%
Activity [4]: 54%
Activity [5]: 111%
Activity [6]: 79%
Activity [7]: 78%
Activity [8]: 88%
Activity [9]: 87%
Activity [10]: 81%
Activity [11]: 97%
Activity [12]: 84%
Activity [13]: 88%
Activity [14]: 92%
Activity [15]: 82%
Activity [16]: 103%
Activity [17]: 108%

CC(=O)Nc1nccc(-c2c(-c3ccccc3)noc2C)n1
Activity [1]: 94%
Activity [2]: 101%
Activity [3]: 79.3%
Activity [4]: 78.2%
Activity [5]: 92.3%
Activity [6]: 106%
Activity [7]: 67.1%
Activity [8]: 91.9%
Activity [9]: 80.4%
Activity [10]: 77.6%
Activity [11]: 85.8%
Activity [12]: 94.6%
Activity [13]: 82.7%
Activity [14]: 80.6%
Activity [15]: 21.4%
Activity [16]: 66.8%
Activity [17]: 91.4%

CC(=O)Nc1cccc(-c2cnc3[nH]nc(C)c3c2)c1
Activity [1]: 124%
Activity [2]: 106%
Activity [3]: 102%
Activity [4]: 56.9%
Activity [5]: 58.7%
Activity [6]: 51.9%
Activity [7]: 63.5%
Activity [8]: 69.5%
Activity [9]: 72.9%
Activity [10]: 99.9%
Activity [11]: 53.5%
Activity [12]: 62.6%
Activity [13]: 70.8%
Activity [14]: 31.5%
Activity [15]: 61.9%
Activity [16]: 45.9%
Activity [17]: 95.8%
